In patent US20110318741A1, “BIOMARKERS FOR THE TREATMENT OF PSORIASIS” (priority 2010, published 2011):

Assays:
[1] = system: psoriasis lesional skin; assay: Histological analysis (immunohistochemistry, H&E) of skin biopsies from psoriasis patients in a clinical trial; assay type: in vivo, human; settings: week 4 biopsies; 20 mg b.i.d.
Protocol: Skin biopsies were evaluated on 20 patients in a clinical trial, where 20 mg of (S)—N-(2-(1-(3-ethoxy-4-methoxyphenyl)-2-(methylsulfonyl)ethyl)-1,3-dioxoisoindolin-4-yl)acetamide was administered b.i.d. to patients with psoriasis. Skin biopsies were done 4 weeks and 12 weeks post-treatment.
The biopsies were subjected to a histological analysis in which response was assessed in H&E stained sections of skin biopsies and after staining frozen sections of skin biopsies with antibodies to keratin 16. CD3, CD11c. ICAM-1. Langerin, CD56, Foxp3, and HLA-DR. This analysis thus included an assessment of epidermal growth/differentiation, skin infiltration by T-cells and DC subsets, presence of regulatory T-cells, and presence of inflammation-regulating molecules in skin lesions.
(§1) The pharmacodynamic effects of (S)—N-(2-(1-(3-ethoxy-4-methoxyphenyl)-2-(methylsulfonyl)ethyl)-1,3-dioxoisoindolin-4-yl)acetamide were studied in skin biopsies from subjects treated with the compound in a phase 2, multi-center, open-label study evaluating the safety, tolerability, and efficacy of the compound in recalcitrant psoriasis vulgaris. Skin biopsies were taken from uninvolved and involved skin at baseline, and from involved skin after treatment with (S)—N-(2-(1-(3-ethoxy-4-methoxyphenyl)-2-(methylsulfonyl)ethyl)-1,3-dioxoisoindolin-4-yl)acetamide 20 mg BID after 4 and 12 weeks.
Skin biopsies were evaluated on 20 patients in this trial. The biopsies were analyzed by immunohistochemistry for a set of cellular markers (keratin 16, CD3. CD11c. ICAM-1, Langerin, CD56, Foxp3, and HLA-DR) to assess epidermal growth/differentiation, skin infiltration by T-cells and dendritic cells (DC), presence of regulatory T-cells, and the presence of inflammation-regulating molecules in skin lesions.

[2] = system: recalcitrant psoriasis vulgaris; assay: PASI score in phase 2, multi-center, open-label study; assay type: in vivo, human; settings: for PSAI Median Change (%): 20 mg BID; for subjects who had PASI-75 response: week 12
From the text: as §1
Additionally, the reductions observed from biopsies were evaluated separately in responders and non-responders.
To identify changes in cellular infiltration or gene expression that correlate with changes in PASI score, a correlation analysis was performed using the Spearman rank-order correlation method. […] A strong trend was observed between the decrease in CD11c+myeloid DC in the epidermis the decrease in PASI score at week 4 (p=0.052).

## CCOc1cc([C@@H](CS(C)(=O)=O)N2C(=O)c3cccc(NC(C)=O)c3C2=O)ccc1OC [(S)—N-(2-(1-(3-ethoxy-4-methoxyphenyl)-2-(methylsulfonyl)ethyl)-1,3-dioxoisoindolin-4-yl)acetamide]
[1]
  median reduction of dermal CD11c+ DCs: 45%
[2]; Week 4, subjects also with CD3 in Dermis values, No. 19
  PSAI Median Change (%): −29.0%
[2]; Week 4, subjects also with CD3 in Epidermis values, No. 19
  PSAI Median Change (%): −29.0%
[2]; Week 4, subjects also with CD11c in Dermis values, No. 20
  PSAI Median Change (%): −32.0%
[2]; Week 4, subjects also with CD11c in Epidermis values, No. 18
  PSAI Median Change (%): −26.5%
[2]; Week 4, subjects also with CD56 in Dermis values, No. 20
  PSAI Median Change (%): −32.0%
[2]; Week 4, subjects also with CD56 in Epidermis values, No. 16
  PSAI Median Change (%): −15.0%
[2]; Week 4, subjects also with CD83/hARP values, No. 15
  PSAI Median Change (%): −18.0%
[2]; Week 4, subjects also with CXCL9/hARP values, No. 17
  PSAI Median Change (%): −29.0%
[2]; Week 4, subjects also with DEFB4/hARP values, No. 16
  PSAI Median Change (%): −23.5%
[2]; Week 4, subjects also with IFNγ/hARP values, No. 15
  PSAI Median Change (%): −35.0%
[2]; Week 4, subjects also with IL-2/hARP values, No. 12
  PSAI Median Change (%): −32.0%
[2]; Week 4, subjects also with IL-8/hARP values, No. 18
  PSAI Median Change (%): −32.0%
[2]; Week 4, subjects also with IL-10/hARP values, No. 18
  PSAI Median Change (%): −32.0%
[2]; Week 4, subjects also with IL-17A/hARP values, No. 16
  PSAI Median Change (%): −23.5%
[2]; Week 4, subjects also with IL-22/hARP values, No. 10
  PSAI Median Change (%): −18.5%
[2]; Week 4, subjects also with K16/hARP values, No. 18
  PSAI Median Change (%): −32.0%
[2]; Week 4, subjects also with Langerin in Dermis values, No. 17
  PSAI Median Change (%): −18.0%
[2]; Week 4, subjects also with Langerin in Epidermis values, No. 20
  PSAI Median Change (%): −32.0%
[2]; Week 4, subjects also with MX1/hARP values, No. 17
  PSAI Median Change (%): −29.0%
[2]; Week 4, subjects also with TNFα/hARP values, No. 17
  PSAI Median Change (%): −29.0%
[2]; Week 4, subjects also with Thickness values, No. 19
  PSAI Median Change (%): −29.0%
[2]; Week 4, subjects also with iNOS/hARP values, No. 15
  PSAI Median Change (%): −35.0%
[2]; Week 4, subjects also with p19/hARP values, No. 18
  PSAI Median Change (%): −32.0%
[2]; Week 4, subjects also with p40/hARP values, No. 13
  PSAI Median Change (%): −29.0%
[2]; Week 12, subjects also with CD3 in Dermis values, No. 15
  PSAI Median Change (%): −48.0%
[2]; Week 12, subjects also with CD3 in Epidermis values, No. 15
  PSAI Median Change (%): −48.0%
[2]; Week 12, subjects also with CD11c in Dermis values, No. 14
  PSAI Median Change (%): −52.5%
[2]; Week 12, subjects also with CD11c in Epidermis values, No. 13
  PSAI Median Change (%): −45.0%
[2]; Week 12, subjects also with CD56 in Dermis values, No. 15
  PSAI Median Change (%): −48.0%
[2]; Week 12, subjects also with CD56 in Epidermis values, No. 12
  PSAI Median Change (%): −42.5%
[2]; Week 12, subjects also with CD83/hARP values, No. 11
  PSAI Median Change (%): −48.0%
[2]; Week 12, subjects also with CXCL9/hARP values, No. 11
  PSAI Median Change (%): −48.0%
[2]; Week 12, subjects also with DEFB4/hARP values, No. 10
  PSAI Median Change (%): −46.5%
[2]; Week 12, subjects also with IFNγ/hARP values, No. 12
  PSAI Median Change (%): −54.0%
[2]; Week 12, subjects also with IL-2/hARP values, No. 10
  PSAI Median Change (%): −54.0%
[2]; Week 12, subjects also with IL-8/hARP values, No. 14
  PSAI Median Change (%): −54.0%
[2]; Week 12, subjects also with IL-10/hARP values, No. 14
  PSAI Median Change (%): −54.0%
[2]; Week 12, subjects also with IL-17A/hARP values, No. 10
  PSAI Median Change (%): −46.5%
[2]; Week 12, subjects also with IL-22/hARP values, No. 6
  PSAI Median Change (%): −46.5%
[2]; Week 12, subjects also with K16/hARP values, No. 14
  PSAI Median Change (%): −54.0%
[2]; Week 12, subjects also with Langerin in Dermis values, No. 12
  PSAI Median Change (%): −54.0%
[2]; Week 12, subjects also with Langerin in Epidermis values, No. 15
  PSAI Median Change (%): −48.0%
[2]; Week 12, subjects also with MX1/hARP values, No. 11
  PSAI Median Change (%): −48.0%
[2]; Week 12, subjects also with TNFα/hARP values, No. 13
  PSAI Median Change (%): −60.0%
[2]; Week 12, subjects also with Thickness values, No. 14
  PSAI Median Change (%): −46.5%
[2]; Week 12, subjects also with iNOS/hARP values, No. 11
  PSAI Median Change (%): −48.0%
[2]; Week 12, subjects also with p19/hARP values, No. 14
  PSAI Median Change (%): −54.0%
[2]; Week 12, subjects also with p40/hARP values, No. 7
  PSAI Median Change (%): −48.0%
[2]; IFNγ analysis set (eight subjects non PASI-75)
  subjects who had PASI-75 response: four
[2]; Langerin in dermis analysis set (ten subjects non PASI-75)
  subjects who had PASI-75 response: four
